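48-hour exposure; five concentrations; linearly interpolated endpoints. At the GI50, growth is halved.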 Activity calls are given as the source filed them. No stated cut-off is given here; in the data, active = GI50 up to about 1.1 µM and inactive = higher.
Key:
Test in all cases: growth of human tumour cells (NCI), 48 h
SF-539 = test system: SF-539
CAKI-1 = test system: CAKI-1
A549 = test system: A549
SK-OV-3 = test system: SK-OV-3
UACC-257 = test system: UACC-257
DMS-273 = test system: DMS-273
HCC 2998 = test system: HCC 2998
RPMI-8226 = test system: RPMI-8226
UO-31 = test system: UO-31
OVCAR-5 = test system: OVCAR-5
RXF 631 = test system: RXF 631
DLD-1 = test system: DLD-1
HOP-92 = test system: HOP-92
U-251 = test system: U-251
SF-268 = test system: SF-268
LOX IMVI = test system: LOX IMVI
SNB-19 = test system: SNB-19
ACHN = test system: ACHN
CCRF-CEM = test system: CCRF-CEM
KM-20L2 = test system: KM-20L2
IGROV-1 = test system: IGROV-1
HOP-18 = test system: HOP-18
NCI-H226 = test system: NCI-H226
MOLT-4 = test system: MOLT-4
M19-MEL = test system: M19-MEL
HL-60 = test system: HL-60
SR = test system: SR
SK-MEL-2 = test system: SK-MEL-2
SF-295 = test system: SF-295
OVCAR-4 = test system: OVCAR-4
COLO 205 = test system: COLO 205
LXFL 529 = test system: LXFL 529
SK-MEL-5 = test system: SK-MEL-5
TK-10 = test system: TK-10
786-0 = test system: 786-0
EKVX = test system: EKVX
HCT-15 = test system: HCT-15
DMS-114 = test system: DMS-114
SW-620 = test system: SW-620
XF498 = test system: XF498
UACC-62 = test system: UACC-62
OVCAR-8 = test system: OVCAR-8
SN12C = test system: SN12C
M14 = test system: M14
A498 = test system: A498
KM12 = test system: KM12
HOP-62 = test system: HOP-62
SK-MEL-28 = test system: SK-MEL-28
K562 = test system: K562
NCI-H460 = test system: NCI-H460
NCI-H522 = test system: NCI-H522
SNB-78 = test system: SNB-78
NCI-H23 = test system: NCI-H23
HT-29 = test system: HT-29
OVCAR-3 = test system: OVCAR-3
Malme-3M = test system: Malme-3M
HCT-116 = test system: HCT-116
SNB-75 = test system: SNB-75
RXF 393 = test system: RXF 393

Measured: GI50

O=C1c2c(O)cccc2C(C(=O)CCCCCC(=O)C2c3cccc(O)c3C(=O)c3c(O)cccc32)c2cccc(O)c21
active: SF-539 0.537 µM | A549 1.03 µM | SK-OV-3 0.879 µM | UACC-257 0.755 µM | RPMI-8226 0.741 µM | U-251 0.766 µM | SF-268 1.04 µM | LOX IMVI 0.906 µM | SNB-19 0.973 µM | M19-MEL 0.857 µM | SK-MEL-2 1.03 µM | LXFL 529 0.697 µM | SK-MEL-5 0.555 µM | EKVX 0.957 µM | DMS-114 0.512 µM | SW-620 1.09 µM | XF498 0.46 µM | UACC-62 1.12 µM | SN12C 1.04 µM | KM12 1.07 µM | SK-MEL-28 0.804 µM | K562 0.966 µM | NCI-H460 0.586 µM | NCI-H522 0.638 µM | SNB-78 0.681 µM | NCI-H23 0.692 µM | OVCAR-3 0.938 µM | HCT-116 0.957 µM | SNB-75 1.03 µM
inactive: CAKI-1 4.5 µM | DMS-273 4.98 µM | HCC 2998 2.27 µM | UO-31 1.15 µM | OVCAR-5 3.22 µM | RXF 631 1.26 µM | DLD-1 1.12 µM | HOP-92 7.98 µM | ACHN 2.72 µM | CCRF-CEM 1.36 µM | KM-20L2 5.51 µM | IGROV-1 1.14 µM | HOP-18 1.16 µM | NCI-H226 3.64 µM | MOLT-4 9.53 µM | HL-60 1.15 µM | SR 1.79 µM | SF-295 1.14 µM | OVCAR-4 1.5 µM | COLO 205 1.98 µM | TK-10 3.82 µM | 786-0 10.6 µM | OVCAR-8 1.53 µM | M14 2.45 µM | A498 4.04 µM | HOP-62 2.88 µM | HT-29 4.49 µM | Malme-3M 2.39 µM
1 µM: HCT-15

COC(=O)C(=O)C(C(=O)C=C(C)C)C(=O)C(=O)Nc1cc(C(F)(F)F)ccc1Cl (stereo unspecified)
inactive: SF-539 > 100 µM | CAKI-1 > 100 µM | A549 > 100 µM | SK-OV-3 > 100 µM | UACC-257 70.3 µM | DMS-273 28.7 µM | HCC 2998 > 100 µM | RPMI-8226 24.4 µM | UO-31 > 100 µM | OVCAR-5 > 100 µM | RXF 631 > 100 µM | DLD-1 > 100 µM | HOP-92 > 100 µM | U-251 > 100 µM | RXF 393 > 100 µM | SF-268 > 100 µM | LOX IMVI 46.9 µM | SNB-19 > 100 µM | ACHN > 100 µM | CCRF-CEM 21.3 µM | KM-20L2 > 100 µM | IGROV-1 > 100 µM | HOP-18 > 100 µM | NCI-H226 > 100 µM | MOLT-4 > 100 µM | HL-60 > 100 µM | SR 17.7 µM | SK-MEL-2 > 100 µM | SF-295 > 100 µM | OVCAR-4 > 100 µM | COLO 205 52.2 µM | LXFL 529 > 100 µM | SK-MEL-5 > 100 µM | TK-10 > 100 µM | 786-0 > 100 µM | EKVX > 100 µM | DMS-114 > 100 µM | XF498 > 100 µM | UACC-62 > 100 µM | OVCAR-8 > 100 µM | SN12C > 100 µM | M14 > 100 µM | A498 > 100 µM | KM12 > 100 µM | HOP-62 > 100 µM | SK-MEL-28 > 100 µM | K562 42.9 µM | NCI-H460 > 100 µM | NCI-H522 57.5 µM | SNB-78 > 100 µM | NCI-H23 > 100 µM | HT-29 > 100 µM | OVCAR-3 > 100 µM | Malme-3M > 100 µM | HCT-116 > 100 µM | SNB-75 > 100 µM
> 100 µM: HCT-15

CC(CN(C)C)C(=O)c1ccccc1 (stereo unspecified)
active: RPMI-8226 0.94 µM
16.6 µM: HCT-15
inactive: SF-539 51.8 µM | CAKI-1 3.43 µM | A549 > 65.3 µM | UACC-257 > 48.6 µM | DMS-273 > 100 µM | HCC 2998 26.6 µM | UO-31 > 31.6 µM | OVCAR-5 32.3 µM | RXF 631 > 86.3 µM | DLD-1 8.97 µM | HOP-92 2.33 µM | U-251 > 100 µM | RXF 393 22.8 µM | SF-268 30.3 µM | LOX IMVI 14.9 µM | SNB-19 > 77.3 µM | ACHN 24.8 µM | CCRF-CEM 3.78 µM | KM-20L2 > 51.8 µM | IGROV-1 > 100 µM | HOP-18 > 100 µM | NCI-H226 > 100 µM | MOLT-4 8.22 µM | M19-MEL 19.1 µM | HL-60 15.9 µM | SR 19.6 µM | SK-MEL-2 22.7 µM | SF-295 > 100 µM | OVCAR-4 > 41.1 µM | COLO 205 31.6 µM | LXFL 529 18 µM | SK-MEL-5 > 82.4 µM | TK-10 > 100 µM | 786-0 22.6 µM | EKVX > 50.7 µM | DMS-114 26.6 µM | SW-620 12.9 µM | XF498 21.3 µM | UACC-62 35.8 µM | OVCAR-8 31.6 µM | SN12C 17.6 µM | M14 24.7 µM | A498 > 46.1 µM | KM12 18.2 µM | HOP-62 > 100 µM | SK-MEL-28 > 41.7 µM | K562 5.02 µM | NCI-H460 > 78.7 µM | NCI-H522 2.04 µM | SNB-78 31 µM | NCI-H23 24.9 µM | HT-29 20 µM | OVCAR-3 42.4 µM | Malme-3M 24.3 µM | HCT-116 28.8 µM | SNB-75 > 83.9 µM

Cn1cnnc1Sc1c([N+](=O)[O-])nc(-c2ccc([N+](=O)[O-])cc2)n1C
inactive: SF-539 16.7 µM | CAKI-1 32.7 µM | A549 > 100 µM | SK-OV-3 > 100 µM | UACC-257 16 µM | DMS-273 17.4 µM | HCC 2998 17.5 µM | RPMI-8226 16.1 µM | UO-31 14.7 µM | OVCAR-5 27.7 µM | RXF 631 17.7 µM | DLD-1 15.3 µM | HOP-92 19.4 µM | U-251 16.6 µM | SF-268 16.9 µM | LOX IMVI 13.6 µM | SNB-19 > 100 µM | ACHN 18.6 µM | CCRF-CEM 10.3 µM | IGROV-1 17.5 µM | HOP-18 17.4 µM | NCI-H226 20.9 µM | MOLT-4 14.6 µM | M19-MEL 17.8 µM | SR 16.2 µM | SK-MEL-2 15.1 µM | SF-295 > 100 µM | OVCAR-4 16.1 µM | COLO 205 14.9 µM | LXFL 529 13.8 µM | SK-MEL-5 16.9 µM | TK-10 18.7 µM | 786-0 17.7 µM | EKVX 27.5 µM | DMS-114 17.9 µM | SW-620 16.1 µM | XF498 10.4 µM | UACC-62 16.5 µM | OVCAR-8 18.1 µM | SN12C 16.1 µM | M14 16.4 µM | A498 > 100 µM | KM12 20.5 µM | HOP-62 > 100 µM | SK-MEL-28 16 µM | K562 18 µM | NCI-H460 36.1 µM | NCI-H522 6.1 µM | SNB-78 18.3 µM | NCI-H23 18.2 µM | HT-29 18.4 µM | OVCAR-3 17 µM | Malme-3M 14.9 µM | HCT-116 15.1 µM | SNB-75 31.3 µM

O=S(O)CCCCCSSc1ccc(Cl)cc1
inactive: SF-539 16 µM | SK-OV-3 56 µM | UACC-257 22.5 µM | HCC 2998 25.9 µM | UO-31 12.9 µM | OVCAR-5 21.1 µM | RXF 631 18.9 µM | DLD-1 21.5 µM | U-251 10.1 µM | RXF 393 13.8 µM | SF-268 10.7 µM | LOX IMVI 16.4 µM | SNB-19 28 µM | CCRF-CEM 4.49 µM | M19-MEL 28.4 µM | HL-60 27.2 µM | SK-MEL-2 15.2 µM | OVCAR-4 28.7 µM | LXFL 529 13.7 µM | TK-10 23.2 µM | EKVX 39.1 µM | XF498 13.7 µM | SN12C 16 µM | M14 22.7 µM | A498 17 µM | KM12 20.7 µM | HOP-62 22.4 µM | SK-MEL-28 21.6 µM | K562 > 100 µM | NCI-H460 36.9 µM | NCI-H522 14.9 µM | SNB-78 23.5 µM | NCI-H23 19.8 µM | HT-29 26.6 µM | OVCAR-3 15.6 µM | Malme-3M 23 µM | HCT-116 25.2 µM | SNB-75 23.1 µM

From ChEMBL document CHEMBL1201862, “PubChem BioAssay data set” (2004)
